# Measured values as given in ChEMBL document CHEMBL5113398, “Design and synthesis of new quinoline derivatives as selective C-RAF kinase inhibitors with potent anticancer activity” (Eur J Med Chem, 2022).
# Assays:
# CCRF-CEM = test: Anticancer activity against human CCRF-CEM cells assessed as total cell growth inhibition incubated for 48 hrs by SRB assay; assay type: functional
# [1] = Aqueous solubility of compound by HPLC analysis; assay type: physicochemical
# A498 [2] = test: Anticancer activity against human A498 cells assessed as total cell growth inhibition incubated for 48 hrs by SRB assay; assay type: functional
# NCI-H522 = test: Anticancer activity against human NCI-H522 cells assessed as cell growth inhibition incubated for 48 hrs by SRB assay; assay type: functional
# [3] = molecular target: Hepatocyte growth factor receptor (Homo sapiens) (UniProt P08581); test: Inhibition of MET (unknown origin) at 1 uM in presence of ATP by hotspot kinase assay
# SN12C [4] = test: Anticancer activity against human SN12C cells assessed as cell growth inhibition incubated for 48 hrs by SRB assay; assay type: functional
# DU-145 = test: Anticancer activity against human DU-145 cells assessed as cell growth inhibition incubated for 48 hrs by SRB assay; assay type: functional
# MDA-MB-435 [5] = test: Anticancer activity against human MDA-MB-435 cells assessed as total cell growth inhibition incubated for 48 hrs by SRB assay; assay type: functional
# MDA-MB-435 [6] = test: Anticancer activity against human MDA-MB-435 cells assessed as cell growth inhibition incubated for 48 hrs by SRB assay; assay type: functional
# [7] = molecular target: Epidermal growth factor receptor (Homo sapiens) (UniProt P00533); test: Inhibition of EGFR (unknown origin) at 1 uM in presence of ATP by hotspot kinase assay
# M14 [8] = test: Anticancer activity against human M14 cells assessed as cell growth inhibition incubated for 48 hrs by SRB assay; assay type: functional
# SF-268 = test: Anticancer activity against human SF-268 cells assessed as cell growth inhibition incubated for 48 hrs by SRB assay; assay type: functional
# NCI/ADR-RES = test: Anticancer activity against human NCI/ADR-RES cells assessed as cell growth inhibition incubated for 48 hrs by SRB assay; assay type: functional
# Malme-3M = test: Anticancer activity against human Malme-3M cells assessed as cell growth inhibition incubated for 48 hrs by SRB assay; assay type: functional
# HCT-15 [9] = test: Anticancer activity against human HCT-15 cells assessed as total cell growth inhibition incubated for 48 hrs by SRB assay; assay type: functional
# MDA-MB-468 = test: Anticancer activity against human MDA-MB-468 cells assessed as total cell growth inhibition incubated for 48 hrs by SRB assay; assay type: functional
# SNB-19 = test: Anticancer activity against human SNB-19 cells assessed as total cell growth inhibition incubated for 48 hrs by SRB assay; assay type: functional
# NCI-H460 = test: Anticancer activity against human NCI-H460 cells assessed as cell growth inhibition incubated for 48 hrs by SRB assay; assay type: functional
# MOLT-4 = test: Anticancer activity against human MOLT-4 cells assessed as total cell growth inhibition incubated for 48 hrs by SRB assay; assay type: functional
# [10] = Cytotoxicity against human WI-38 cells assessed as cell growth inhibition incubated for 48 hrs by SRB assay; assay type: toxicity, cell-based
# MCF7 [11] = test: Anticancer activity against human MCF7 cells assessed as total cell growth inhibition incubated for 48 hrs by SRB assay; assay type: functional
# M14 [12] = test: Anticancer activity against human M14 cells assessed as total cell growth inhibition incubated for 48 hrs by SRB assay; assay type: functional
# UACC-257 = test: Anticancer activity against human UACC-257 cells assessed as total cell growth inhibition incubated for 48 hrs by SRB assay; assay type: functional
# SK-MEL-5 = test: Anticancer activity against human SK-MEL-5 cells assessed as total cell growth inhibition incubated for 48 hrs by SRB assay; assay type: functional
# SW-620 = test: Anticancer activity against human SW-620 cells assessed as cell growth inhibition incubated for 48 hrs by SRB assay; assay type: functional
# 786-0 = test: Anticancer activity against human 786-0 cells assessed as total cell growth inhibition incubated for 48 hrs by SRB assay; assay type: functional
# TK-10 = test: Anticancer activity against human TK-10 cells assessed as cell growth inhibition incubated for 48 hrs by SRB assay; assay type: functional
# NCI-H226 = test: Anticancer activity against human NCI-H226 cells assessed as total cell growth inhibition incubated for 48 hrs by SRB assay; assay type: functional
# SN12C [13] = test: Anticancer activity against human SN12C cells assessed as total cell growth inhibition incubated for 48 hrs by SRB assay; assay type: functional
# [14] = n-Octanol/PBS partition coefficient, logD of the compound at pH 7.4; assay type: physicochemical
# [15] = molecular target: Platelet-derived growth factor receptor alpha (Homo sapiens) (UniProt P16234); test: Inhibition of PDGFRalpha (unknown origin) at 1 uM in presence of ATP by hotspot kinase assay
# COLO 205 = test: Anticancer activity against human COLO 205 cells assessed as cell growth inhibition incubated for 48 hrs by SRB assay; assay type: functional
# UACC-62 = test: Anticancer activity against human UACC-62 cells assessed as total cell growth inhibition incubated for 48 hrs by SRB assay; assay type: functional
# A498 [16] = test: Anticancer activity against human A498 cells assessed as cell growth inhibition incubated for 48 hrs by SRB assay; assay type: functional
# [17] = molecular target: Serine/threonine-protein kinase A-Raf (Homo sapiens) (UniProt P10398); test: Inhibition of A-Raf (unknown origin) at 1 uM in presence of ATP by hotspot kinase assay
# [18] = molecular target: Vascular endothelial growth factor receptor 2 (Homo sapiens) (UniProt P35968); test: Inhibition of KDR (unknown origin) at 1 uM in presence of ATP by hotspot kinase assay
# MCF7 [19] = test: Anticancer activity against human MCF7 cells assessed as cell growth inhibition incubated for 48 hrs by SRB assay; assay type: functional
# HCT-15 [20] = test: Anticancer activity against human HCT-15 cells assessed as cell growth inhibition incubated for 48 hrs by SRB assay; assay type: functional
# RPMI-8226 [21] = test: Induction of necrosis in human RPMI-8226 cells assessed as LDH release at 1.68 uM; assay type: functional
# [22] = Apparent permeability across apical to basolateral side in human Caco-2 cells assessed as drug recovery at pH 6.5 to 7.4; assay type: ADME, cell-based; settings: Caco-2, pH 6.5, read-out: Drug recovery
# RPMI-8226 [23] = test: Induction of apoptosis in human RPMI-8226 assessed as fold increase in caspase-3/7 activity at 2.12 uM; assay type: functional
# RPMI-8226 [24] = test: Induction of apoptosis in human RPMI-8226 assessed as fold increase in caspase-3/7 activity at 0.84 uM; assay type: functional
# RPMI-8226 [25] = test: Induction of necrosis in human RPMI-8226 cells assessed as LDH release at 2.12 uM; assay type: functional
# [26] = Apparent permeability of the compound from apical to basolateral side in human Caco-2 cells at pH 6.5 to 7.4; assay type: ADME, cell-based; settings: Caco-2, pH 6.5
# RPMI-8226 [27] = test: Induction of necrosis in human RPMI-8226 cells assessed as LDH release at 0.84 uM; assay type: functional
# RPMI-8226 [28] = test: Induction of apoptosis in human RPMI-8226 assessed as fold increase in caspase-3/7 activity at 1.68 uM; assay type: functional
# Platelet-derived growth factor receptor alpha (Homo sapiens), sequence (P16234 whole entry): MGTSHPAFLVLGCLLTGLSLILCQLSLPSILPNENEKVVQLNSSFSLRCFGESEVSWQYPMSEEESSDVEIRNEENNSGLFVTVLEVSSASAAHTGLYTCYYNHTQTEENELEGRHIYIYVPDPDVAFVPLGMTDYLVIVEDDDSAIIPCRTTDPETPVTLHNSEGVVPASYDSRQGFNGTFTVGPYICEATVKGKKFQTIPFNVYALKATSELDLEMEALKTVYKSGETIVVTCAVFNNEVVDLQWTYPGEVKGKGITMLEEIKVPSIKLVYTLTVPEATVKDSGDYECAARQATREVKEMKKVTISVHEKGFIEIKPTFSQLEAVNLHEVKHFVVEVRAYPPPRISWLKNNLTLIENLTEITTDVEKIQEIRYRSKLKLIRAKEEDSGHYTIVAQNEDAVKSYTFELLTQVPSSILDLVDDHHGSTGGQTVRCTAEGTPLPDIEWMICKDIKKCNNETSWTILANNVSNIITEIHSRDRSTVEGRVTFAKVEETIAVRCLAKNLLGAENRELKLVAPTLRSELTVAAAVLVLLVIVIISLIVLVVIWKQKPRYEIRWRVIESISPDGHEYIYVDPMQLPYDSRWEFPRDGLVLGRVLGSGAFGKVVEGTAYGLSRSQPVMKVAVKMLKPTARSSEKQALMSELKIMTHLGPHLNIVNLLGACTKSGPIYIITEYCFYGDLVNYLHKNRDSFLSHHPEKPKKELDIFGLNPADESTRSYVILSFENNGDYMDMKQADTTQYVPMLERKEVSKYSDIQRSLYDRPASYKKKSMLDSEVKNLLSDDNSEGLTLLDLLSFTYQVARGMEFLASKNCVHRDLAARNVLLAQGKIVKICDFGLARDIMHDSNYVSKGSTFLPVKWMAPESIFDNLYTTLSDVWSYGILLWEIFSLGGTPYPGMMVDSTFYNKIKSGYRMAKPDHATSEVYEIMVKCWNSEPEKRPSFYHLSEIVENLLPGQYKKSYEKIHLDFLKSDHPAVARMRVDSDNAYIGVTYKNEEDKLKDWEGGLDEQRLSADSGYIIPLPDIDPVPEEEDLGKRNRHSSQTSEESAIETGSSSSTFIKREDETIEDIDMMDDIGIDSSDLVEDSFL
# Vascular endothelial growth factor receptor 2 (Homo sapiens), sequence (P35968 whole entry): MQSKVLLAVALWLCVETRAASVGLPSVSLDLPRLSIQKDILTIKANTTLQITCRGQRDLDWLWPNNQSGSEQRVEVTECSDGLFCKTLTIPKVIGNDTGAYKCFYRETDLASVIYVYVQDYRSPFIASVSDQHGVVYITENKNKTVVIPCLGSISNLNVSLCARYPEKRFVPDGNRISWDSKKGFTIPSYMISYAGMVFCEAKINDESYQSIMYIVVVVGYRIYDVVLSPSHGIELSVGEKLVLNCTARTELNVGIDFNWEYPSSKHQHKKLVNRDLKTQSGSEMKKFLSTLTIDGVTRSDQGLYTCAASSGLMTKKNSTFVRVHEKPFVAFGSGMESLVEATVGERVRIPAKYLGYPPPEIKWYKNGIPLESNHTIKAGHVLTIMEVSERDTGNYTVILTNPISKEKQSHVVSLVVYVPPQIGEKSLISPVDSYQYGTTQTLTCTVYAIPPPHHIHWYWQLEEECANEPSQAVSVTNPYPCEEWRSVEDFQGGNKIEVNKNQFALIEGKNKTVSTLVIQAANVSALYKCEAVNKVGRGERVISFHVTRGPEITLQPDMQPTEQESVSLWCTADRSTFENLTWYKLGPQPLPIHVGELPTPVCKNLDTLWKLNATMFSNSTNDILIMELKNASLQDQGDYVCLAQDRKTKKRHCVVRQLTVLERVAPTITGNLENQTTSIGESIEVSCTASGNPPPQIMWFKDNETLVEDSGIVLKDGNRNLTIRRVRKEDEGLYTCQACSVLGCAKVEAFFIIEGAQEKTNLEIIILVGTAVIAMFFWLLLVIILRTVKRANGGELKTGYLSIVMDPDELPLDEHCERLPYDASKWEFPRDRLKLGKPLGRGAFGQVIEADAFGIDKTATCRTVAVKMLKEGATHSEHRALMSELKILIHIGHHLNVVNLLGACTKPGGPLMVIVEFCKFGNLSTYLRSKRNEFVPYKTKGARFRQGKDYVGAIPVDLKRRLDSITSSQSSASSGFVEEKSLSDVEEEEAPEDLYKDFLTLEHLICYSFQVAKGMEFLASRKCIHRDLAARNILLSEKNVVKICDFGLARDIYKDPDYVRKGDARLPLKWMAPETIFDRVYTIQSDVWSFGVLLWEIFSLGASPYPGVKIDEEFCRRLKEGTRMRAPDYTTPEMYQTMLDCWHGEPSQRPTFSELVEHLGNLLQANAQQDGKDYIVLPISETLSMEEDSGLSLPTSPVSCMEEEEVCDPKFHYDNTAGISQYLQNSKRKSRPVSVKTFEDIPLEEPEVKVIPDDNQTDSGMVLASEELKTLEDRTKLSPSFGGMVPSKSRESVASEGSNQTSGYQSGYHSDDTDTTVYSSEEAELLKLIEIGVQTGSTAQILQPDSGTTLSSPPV
# Epidermal growth factor receptor (Homo sapiens), sequence (P00533 whole entry): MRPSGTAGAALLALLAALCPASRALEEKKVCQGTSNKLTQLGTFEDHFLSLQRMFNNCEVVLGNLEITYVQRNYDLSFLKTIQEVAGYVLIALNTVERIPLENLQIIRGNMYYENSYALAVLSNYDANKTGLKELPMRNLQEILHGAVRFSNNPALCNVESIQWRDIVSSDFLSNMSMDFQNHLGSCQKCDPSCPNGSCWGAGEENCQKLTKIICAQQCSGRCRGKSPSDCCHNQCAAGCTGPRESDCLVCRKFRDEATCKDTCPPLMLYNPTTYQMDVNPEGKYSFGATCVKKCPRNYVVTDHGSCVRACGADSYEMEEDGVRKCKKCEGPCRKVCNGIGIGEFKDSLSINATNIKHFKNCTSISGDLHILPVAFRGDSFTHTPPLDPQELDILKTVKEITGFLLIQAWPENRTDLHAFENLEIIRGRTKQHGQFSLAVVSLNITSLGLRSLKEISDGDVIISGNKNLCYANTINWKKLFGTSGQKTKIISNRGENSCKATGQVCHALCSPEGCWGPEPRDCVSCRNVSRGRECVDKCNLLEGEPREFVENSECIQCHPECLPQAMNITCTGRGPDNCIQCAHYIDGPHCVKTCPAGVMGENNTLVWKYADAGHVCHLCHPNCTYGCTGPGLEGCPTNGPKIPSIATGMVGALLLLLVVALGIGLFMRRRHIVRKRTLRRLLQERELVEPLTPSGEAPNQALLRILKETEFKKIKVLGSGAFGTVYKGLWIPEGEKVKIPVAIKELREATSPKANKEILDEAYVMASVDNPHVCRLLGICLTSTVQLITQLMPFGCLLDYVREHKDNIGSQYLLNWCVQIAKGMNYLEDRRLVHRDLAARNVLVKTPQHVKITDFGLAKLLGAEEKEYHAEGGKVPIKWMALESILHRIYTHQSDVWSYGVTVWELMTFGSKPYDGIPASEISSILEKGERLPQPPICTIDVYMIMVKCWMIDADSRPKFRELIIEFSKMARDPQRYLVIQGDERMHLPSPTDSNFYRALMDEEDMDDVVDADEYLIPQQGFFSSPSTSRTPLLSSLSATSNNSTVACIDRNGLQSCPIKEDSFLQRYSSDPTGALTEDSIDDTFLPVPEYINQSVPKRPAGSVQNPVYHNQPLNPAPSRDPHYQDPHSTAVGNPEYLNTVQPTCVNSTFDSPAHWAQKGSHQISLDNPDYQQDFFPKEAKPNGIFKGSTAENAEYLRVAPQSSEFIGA
# Hepatocyte growth factor receptor (Homo sapiens), sequence (P08581 whole entry): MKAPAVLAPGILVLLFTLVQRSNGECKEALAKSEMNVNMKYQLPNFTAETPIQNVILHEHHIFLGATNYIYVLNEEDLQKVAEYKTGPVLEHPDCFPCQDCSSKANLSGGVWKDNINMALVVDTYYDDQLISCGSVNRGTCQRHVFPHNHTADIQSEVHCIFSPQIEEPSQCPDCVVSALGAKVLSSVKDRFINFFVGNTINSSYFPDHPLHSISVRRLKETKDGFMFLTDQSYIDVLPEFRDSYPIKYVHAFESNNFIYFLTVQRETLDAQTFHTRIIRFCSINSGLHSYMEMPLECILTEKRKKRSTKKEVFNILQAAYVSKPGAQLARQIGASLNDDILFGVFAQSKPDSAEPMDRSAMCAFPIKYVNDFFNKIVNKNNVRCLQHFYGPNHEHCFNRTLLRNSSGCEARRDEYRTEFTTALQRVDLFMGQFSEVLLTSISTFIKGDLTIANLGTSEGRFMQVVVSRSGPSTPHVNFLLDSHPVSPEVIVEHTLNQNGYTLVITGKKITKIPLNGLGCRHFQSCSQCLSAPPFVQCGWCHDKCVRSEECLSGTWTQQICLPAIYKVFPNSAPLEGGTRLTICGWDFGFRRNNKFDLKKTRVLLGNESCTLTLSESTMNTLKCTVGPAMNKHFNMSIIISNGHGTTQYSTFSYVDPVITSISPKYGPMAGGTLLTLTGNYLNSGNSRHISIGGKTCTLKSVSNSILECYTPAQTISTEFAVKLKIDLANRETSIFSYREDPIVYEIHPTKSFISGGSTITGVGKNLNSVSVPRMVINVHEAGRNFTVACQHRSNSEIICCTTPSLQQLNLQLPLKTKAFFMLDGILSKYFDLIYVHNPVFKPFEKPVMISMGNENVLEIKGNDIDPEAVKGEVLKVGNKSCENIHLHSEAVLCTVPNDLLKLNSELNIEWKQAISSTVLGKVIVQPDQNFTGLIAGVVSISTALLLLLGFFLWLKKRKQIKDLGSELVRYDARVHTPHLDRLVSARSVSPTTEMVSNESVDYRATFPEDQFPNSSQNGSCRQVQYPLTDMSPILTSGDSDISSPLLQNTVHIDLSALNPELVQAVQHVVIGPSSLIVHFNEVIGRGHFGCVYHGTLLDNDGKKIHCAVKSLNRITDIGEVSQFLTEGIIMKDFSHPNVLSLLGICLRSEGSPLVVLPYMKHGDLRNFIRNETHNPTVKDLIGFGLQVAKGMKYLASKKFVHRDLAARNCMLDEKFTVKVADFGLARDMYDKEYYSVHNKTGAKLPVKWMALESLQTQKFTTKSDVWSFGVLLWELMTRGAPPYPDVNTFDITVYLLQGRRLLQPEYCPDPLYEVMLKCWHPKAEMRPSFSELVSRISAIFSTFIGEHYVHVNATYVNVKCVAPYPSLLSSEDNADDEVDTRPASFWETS
compound,measurement,setting,value
COc1cc2cc(Oc3ccc(NC(=O)Nc4ccc(Cl)c(C(F)(F)F)c4)cc3)c(C)nc2cc1OCCN1CCOCC1,TGI,CCRF-CEM,> 100 µM
same,solubility,[1],349 µM
same,TGI,A498 [2],9.62 µM
same,GI50,NCI-H522,1.43 µM
same,inhibition,[3],4.3%
same,GI50,SN12C [4],2.56 µM
same,GI50,DU-145,2.69 µM
same,TGI,MDA-MB-435 [5],4.1 µM
same,GI50,MDA-MB-435 [6],1.94 µM
same,inhibition,[7],-2.4%
same,GI50,M14 [8],1.52 µM
same,GI50,SF-268,2.59 µM
same,GI50,NCI/ADR-RES,2.34 µM
same,GI50,Malme-3M,1.52 µM
same,TGI,HCT-15 [9],3.18 µM
same,TGI,MDA-MB-468,2.06 µM
same,TGI,SNB-19,19.8 µM
same,GI50,NCI-H460,1.65 µM
same,TGI,MOLT-4,10.5 µM
same,GI50 at 48 h,[10],> 20 µM
same,TGI,MCF7 [11],3.33 µM
same,TGI,M14 [12],3.45 µM
same,TGI,UACC-257,4.55 µM
same,TGI,SK-MEL-5,2.37 µM
same,GI50,SW-620,5.52 µM
same,TGI,786-0,4.15 µM
same,GI50,TK-10,4.97 µM
same,TGI,NCI-H226,5.91 µM
same,TGI,SN12C [13],56.2 µM
same,logD,[14],2.73
same,inhibition,[15],23.2%
same,GI50,COLO 205,1.63 µM
same,TGI,UACC-62,3.46 µM
same,GI50,A498 [16],2.45 µM
same,inhibition,[17],-6.33%
same,inhibition,[18],1.56%
same,GI50,MCF7 [19],1.26 µM
same,GI50,HCT-15 [20],3.18 µM
COc1cc2cc(Oc3ccc(NC(=O)Nc4cc(C(F)(F)F)cc(C(F)(F)F)c4)cc3)c(C)nc2cc1OCCN1CCOCC1,TGI,CCRF-CEM,6.57 µM
same,solubility,[1],317 µM
same,TGI,A498 [2],6.69 µM
same,GI50,NCI-H522,1.63 µM
same,inhibition,[3],1.04%
same,GI50,SN12C [4],1.49 µM
same,GI50,DU-145,1.93 µM
same,TGI,MDA-MB-435 [5],6.72 µM
same,GI50,MDA-MB-435 [6],1.9 µM
same,inhibition,[7],3.62%
same,GI50,M14 [8],1.51 µM
same,GI50,SF-268,1.98 µM
same,GI50,NCI/ADR-RES,1.59 µM
same,GI50,Malme-3M,1.2 µM
same,TGI,HCT-15 [9],2.77 µM
same,TGI,MDA-MB-468,3.76 µM
same,TGI,SNB-19,7.42 µM
same,GI50,NCI-H460,1.66 µM
same,TGI,MOLT-4,4.29 µM
same,GI50 at 48 h,[10],> 20 µM
same,Activity,RPMI-8226 [21],23.4%
same,TGI,MCF7 [11],3.91 µM
same,TGI,M14 [12],5.88 µM
same,recovery,[22],74%
same,TGI,UACC-257,4.24 µM
same,TGI,SK-MEL-5,1.66 µM
same,fold change (FC),RPMI-8226 [23],2.84
same,GI50,SW-620,1.72 µM
same,fold change (FC),RPMI-8226 [24],1.97
same,Activity,RPMI-8226 [25],31.65%
same,TGI,786-0,3.65 µM
same,GI50,TK-10,3.7 µM
same,TGI,NCI-H226,6.53 µM
same,TGI,SN12C [13],5.48 µM
same,logD,[14],2.91
same,Papp A→B,[26],0.4 ×10⁻⁶ cm/s
same,Activity,RPMI-8226 [27],9.5%
same,inhibition,[15],26.9%
same,GI50,COLO 205,1.02 µM
same,fold change (FC),RPMI-8226 [28],2.68
same,TGI,UACC-62,6.9 µM
same,GI50,A498 [16],1.8 µM
same,inhibition,[17],1.23%
same,inhibition,[18],4.5%
same,GI50,MCF7 [19],1.43 µM
same,GI50,HCT-15 [20],1.1 µM
COc1cc2cc(Oc3ccc(NC(=O)Nc4ccc(F)c(C(F)(F)F)c4)cc3)c(C)nc2cc1OCCN1CCOCC1,TGI,CCRF-CEM,11.5 µM
same,solubility,[1],497 µM
same,TGI,A498 [2],10.2 µM
same,GI50,NCI-H522,2.04 µM
same,inhibition,[3],3.05%
same,GI50,SN12C [4],2.65 µM
same,GI50,DU-145,3.5 µM
same,TGI,MDA-MB-435 [5],3.9 µM
same,GI50,MDA-MB-435 [6],1.91 µM
same,inhibition,[7],1.43%
same,GI50,M14 [8],1.53 µM
same,GI50,SF-268,3.66 µM
same,GI50,NCI/ADR-RES,2.56 µM
same,GI50,Malme-3M,1.57 µM
same,TGI,HCT-15 [9],4.19 µM
same,TGI,MDA-MB-468,10.4 µM
same,TGI,SNB-19,19.3 µM
same,GI50,NCI-H460,1.96 µM
same,TGI,MOLT-4,11.4 µM
same,GI50 at 48 h,[10],> 20 µM
same,TGI,MCF7 [11],3.48 µM
same,TGI,M14 [12],3.31 µM
same,TGI,UACC-257,5.18 µM
same,TGI,SK-MEL-5,2.36 µM
same,GI50,SW-620,3.34 µM
same,TGI,786-0,3.44 µM
same,GI50,TK-10,4.94 µM
same,TGI,NCI-H226,13.2 µM
same,TGI,SN12C [13],15.5 µM
same,logD,[14],2.54
same,inhibition,[15],18.3%
same,GI50,COLO 205,1.87 µM
same,TGI,UACC-62,4.24 µM
same,GI50,A498 [16],2.8 µM
same,inhibition,[18],-2.9%
same,GI50,MCF7 [19],1.46 µM
same,GI50,HCT-15 [20],1.73 µM
